Consider two compounds from ChEMBL document CHEMBL1152299, “Indazole-based liver X receptor (LXR) modulators with maintained atherosclerotic lesion reduction activity but diminished stimulation of hepatic triglyceride synthesis” (J Med Chem, 2008).

SMILES strings stand for the structures. Activity calls are given as the source filed them.

For series [1], the target named is T1, Nuclear receptor subfamily 1 group I member 2 (Homo sapiens, UniProt O75469).
T1 sequence (O75469 whole entry): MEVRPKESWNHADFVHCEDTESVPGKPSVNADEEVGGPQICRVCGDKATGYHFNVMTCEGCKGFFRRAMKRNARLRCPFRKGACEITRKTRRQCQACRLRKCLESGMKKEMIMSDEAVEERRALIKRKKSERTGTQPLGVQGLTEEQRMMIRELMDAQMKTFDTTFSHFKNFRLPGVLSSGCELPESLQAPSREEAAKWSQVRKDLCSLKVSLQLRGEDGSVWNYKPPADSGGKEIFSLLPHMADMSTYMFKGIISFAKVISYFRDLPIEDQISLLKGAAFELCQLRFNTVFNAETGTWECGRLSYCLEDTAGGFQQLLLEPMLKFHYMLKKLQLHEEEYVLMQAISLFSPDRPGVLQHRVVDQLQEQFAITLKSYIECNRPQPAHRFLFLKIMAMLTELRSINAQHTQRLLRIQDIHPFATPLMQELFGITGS

In series [2] the target is Retinoid X receptor (Homo sapiens) (UniProt P28702+P48443+P19793). The series is described as follows: (§1) Displacement of radiolabeled 9-cis retinoic acid from human RXR by scintillation proximity assay. In kind it is protein assay. Background: SPA uses beads or plates that emit light when radiolabelled molecules are held near them.
Series [3] in a line: Half life in C57 mouse at 1 mg/kg, iv. Conditions: in vivo. The arrangement: dose 1 mg/kg, route intravenous. In kind it is ADME, organism-based.
Series [4] is described as follows: Clearance in C57 mouse at 1 mg/kg, iv and 10 mg/kg, po. The class given is ADME, organism-based. Conditions: in vivo.
Series [5] is described as follows: Cmax in male C57 mice after 10 mg/kg oral dose. The class given is ADME, organism-based. On the set-up: dose 10 mg/kg, route oral. Conditions: C57, mouse, in vivo.
Series [6] has as its system Mus musculus. The series is described as follows: Decrease in total cholesterol level in LDL receptor knockout C57BL/6 mouse plasma at 15 mg/kg administered with Western diet after 8 weeks. In kind it is functional. The arrangement: scale not given: the % may be the effect or the level left.
For series [7], the system named is Mus musculus. Description: Increase in CYP7A1 gene expression in LDL receptor knockout C57BL/6 mouse liver at 15 mg/kg administered with Western diet. The class given is functional.
Series [8] deals with Syrian golden hamster. The series is described as follows: Induction of FAS gene expression in golden Syrian hamster liver at 100 mg/kg administered with chow diet for 7 days measured after 2 hrs of final dose by real time PCR. In kind it is functional, organism-based. The arrangement: dose 100 mg/kg. Conditions: Mesocricetus auratus. (In general: Quantitative PCR measures a nucleic acid by following its amplification.)

Series [9] is described as follows: Bioavailability in C57 mouse at 1 mg/kg, iv and 10 mg/kg, po. The class given is ADME, organism-based. Conditions: in vivo.
Series [10] deals with T2, Retinoid X receptor (Homo sapiens, UniProt P28702+P48443+P19793).
T2 sequence (P28702 whole entry): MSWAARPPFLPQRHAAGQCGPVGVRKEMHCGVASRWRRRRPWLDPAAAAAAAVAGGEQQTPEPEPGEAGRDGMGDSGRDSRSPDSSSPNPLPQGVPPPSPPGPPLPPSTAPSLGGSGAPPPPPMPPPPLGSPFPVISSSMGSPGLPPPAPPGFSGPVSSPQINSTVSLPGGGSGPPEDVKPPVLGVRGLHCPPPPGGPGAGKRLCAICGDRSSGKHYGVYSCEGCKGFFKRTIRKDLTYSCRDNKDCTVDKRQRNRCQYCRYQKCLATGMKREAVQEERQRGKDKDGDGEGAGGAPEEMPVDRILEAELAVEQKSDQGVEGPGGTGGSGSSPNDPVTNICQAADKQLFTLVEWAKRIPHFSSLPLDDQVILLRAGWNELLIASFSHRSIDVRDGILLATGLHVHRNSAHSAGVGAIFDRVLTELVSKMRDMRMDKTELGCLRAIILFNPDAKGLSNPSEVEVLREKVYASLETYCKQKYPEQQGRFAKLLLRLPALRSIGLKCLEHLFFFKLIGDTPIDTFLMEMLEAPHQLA
T2 sequence (P48443 whole entry): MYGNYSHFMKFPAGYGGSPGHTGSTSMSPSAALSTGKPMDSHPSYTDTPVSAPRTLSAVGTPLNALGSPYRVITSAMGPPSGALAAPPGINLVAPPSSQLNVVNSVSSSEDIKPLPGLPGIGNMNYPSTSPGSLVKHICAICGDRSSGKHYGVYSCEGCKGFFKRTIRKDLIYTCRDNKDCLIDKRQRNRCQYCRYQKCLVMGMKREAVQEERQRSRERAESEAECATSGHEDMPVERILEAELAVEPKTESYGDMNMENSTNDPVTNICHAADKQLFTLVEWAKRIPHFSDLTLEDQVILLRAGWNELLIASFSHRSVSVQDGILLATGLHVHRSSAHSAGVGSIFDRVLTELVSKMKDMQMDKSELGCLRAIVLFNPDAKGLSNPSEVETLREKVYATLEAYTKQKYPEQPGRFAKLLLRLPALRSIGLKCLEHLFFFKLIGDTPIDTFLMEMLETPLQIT
T2 sequence (P19793 whole entry): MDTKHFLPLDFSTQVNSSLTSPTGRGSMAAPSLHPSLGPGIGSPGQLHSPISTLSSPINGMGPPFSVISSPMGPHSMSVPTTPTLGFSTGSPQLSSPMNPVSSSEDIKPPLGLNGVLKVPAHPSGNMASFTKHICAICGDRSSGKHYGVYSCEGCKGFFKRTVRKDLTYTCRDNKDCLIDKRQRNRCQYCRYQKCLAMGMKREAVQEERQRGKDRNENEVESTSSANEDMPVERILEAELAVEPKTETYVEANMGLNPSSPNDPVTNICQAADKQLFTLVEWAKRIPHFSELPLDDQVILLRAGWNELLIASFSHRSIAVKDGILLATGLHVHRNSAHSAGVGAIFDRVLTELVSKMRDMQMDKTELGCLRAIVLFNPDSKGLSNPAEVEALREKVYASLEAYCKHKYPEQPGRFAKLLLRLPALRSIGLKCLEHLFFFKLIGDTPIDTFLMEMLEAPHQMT
The description is as §1. The class given is protein assay.

A word on the IC50: it is the concentration that inhibits the measured activity by half. What is called half-life is the time needed for the level to fall by half in the phase considered. Broadly, the Cmax is the peak of the concentration-time curve. In [1], `Fc1ccc(-c2c3cccc(C(F)(F)F)c3nn2Cc2ccccc2F)cc1` yielded an IC50 of 2160 nM. In addition, the result in series [2] and in series [8] was inactive. The half-life in series [3] is 474 min. Further, the clearance in series [4] came out at 57 mL/min/kg. The peak concentration (Cmax) in series [5] came to 633 ng/mL. In series [6], this compound gave an Activity of 10%. Moreover, the “fold change (FC)” value in series [7] was determined as 4. Moreover, the bioavailability in series [9] came to 106%.
As to `Fc1ccc(-c2c3cccc(C(F)(F)F)c3nn2Cc2ccc(F)cc2Cl)cc1` [LXR-623], the IC50 in [1] was 1770 nM; in series [10], above 10 µM.
